The values below come from ChEMBL document CHEMBL5614376, “Discovery of MT-1207: A Novel, Potent Multitarget Inhibitor as a Promising Clinical Candidate for the Treatment of Hypertension” (J Med Chem, 2024).

Holding throughout (format): cell membranes
Test [1] concerns the target T1, Alpha-1A adrenergic receptor (Homo sapiens) (UniProt P35348).
T1 sequence (whole entry): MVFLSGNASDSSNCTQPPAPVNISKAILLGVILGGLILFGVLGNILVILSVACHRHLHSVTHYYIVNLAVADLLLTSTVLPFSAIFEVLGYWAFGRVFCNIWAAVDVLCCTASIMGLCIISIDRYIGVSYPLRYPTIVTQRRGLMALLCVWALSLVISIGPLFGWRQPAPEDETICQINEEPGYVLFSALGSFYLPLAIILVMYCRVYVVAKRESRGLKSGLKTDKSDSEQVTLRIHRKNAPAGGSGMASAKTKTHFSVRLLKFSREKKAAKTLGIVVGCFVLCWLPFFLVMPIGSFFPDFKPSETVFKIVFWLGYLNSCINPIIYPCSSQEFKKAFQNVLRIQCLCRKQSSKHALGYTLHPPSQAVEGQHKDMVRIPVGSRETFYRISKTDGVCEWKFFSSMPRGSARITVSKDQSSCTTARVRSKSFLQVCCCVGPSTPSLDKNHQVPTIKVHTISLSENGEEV
In words: Displacement of [3H]prazosin from recombinant human alpha 1A adrenoceptor extracted from CHO cell membrane at 100 nM incubated for 60 mins by radioligand binding assay relative to control.

Test [2] concerns the target T1, Alpha-1A adrenergic receptor (Homo sapiens). In words: Displacement of [3H]prazosin from recombinant human alpha 1A adrenoceptor extracted from CHO cell membrane at 10 nM incubated for 60 mins by radioligand binding assay relative to control. Background: Loss of bound radioactivity is the signal in a displacement assay; it reports binding, not function.
Test [3] addresses T2, 5-hydroxytryptamine receptor 2A (Homo sapiens, UniProt P28223). As to the kind of experiment: Displacement of [3H]Ketanserin from recombinant human 5-HT2A receptor extracted from CHO cell membrane at 100 nM incubated for 60 mins by radioligand binding assay relative to control.
For test [4], the target named is T2, 5-hydroxytryptamine receptor 2A. As to the kind of experiment: Displacement of [3H]Ketanserin from recombinant human 5-HT2A receptor extracted from CHO cell membrane at 10 nM incubated for 60 mins by radioligand binding assay relative to control.
Test [5] concerns the target T1, Alpha-1A adrenergic receptor (Homo sapiens). In words: Displacement of [3H]prazosin from recombinant human alpha 1A adrenoceptor extracted from CHO cell membrane at 1 nM incubated for 60 mins by radioligand binding assay relative to control.
In test [6] the target is T2, 5-hydroxytryptamine receptor 2A. In words: Displacement of [3H]Ketanserin from recombinant human 5-HT2A receptor extracted from CHO cell membrane at 1 nM incubated for 60 mins by radioligand binding assay relative to control.

T2 sequence (P28223 whole entry): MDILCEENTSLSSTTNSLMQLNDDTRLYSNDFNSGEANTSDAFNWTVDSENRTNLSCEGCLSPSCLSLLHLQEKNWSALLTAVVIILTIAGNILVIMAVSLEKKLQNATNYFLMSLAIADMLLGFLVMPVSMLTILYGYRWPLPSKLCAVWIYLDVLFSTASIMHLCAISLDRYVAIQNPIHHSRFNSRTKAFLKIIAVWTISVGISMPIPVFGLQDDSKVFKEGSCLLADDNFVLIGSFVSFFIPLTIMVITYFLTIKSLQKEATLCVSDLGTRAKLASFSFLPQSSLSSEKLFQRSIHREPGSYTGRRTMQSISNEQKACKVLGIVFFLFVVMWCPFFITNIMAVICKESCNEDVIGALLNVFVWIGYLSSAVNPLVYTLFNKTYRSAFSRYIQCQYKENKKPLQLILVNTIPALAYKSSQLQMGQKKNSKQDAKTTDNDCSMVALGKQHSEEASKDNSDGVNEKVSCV

As for `FC(F)(F)c1cccc(N2CCN(CCCn3nnc4ccccc43)CC2)c1`, the inhibition – broadly, the change of the read-out against control, counted positive when it falls – is 61.3% in test [1] (filed as antagonist), -2.01% in test [2], 64.5% in test [3] (filed as antagonist) and -6.65% in test [4].

As for `Fc1ccc2c(N3CCN(CCCCn4nc5ccccc5n4)CC3)noc2c1`, the inhibition is 101% in test [1] (filed as antagonist); 99% in test [2] (filed as antagonist); 96.5% in test [3] (filed as antagonist); 83.1% in test [5] (filed as antagonist); 61.1% in test [4] (filed as antagonist).

As for `FC(F)(F)c1cccc(N2CCN(CCCn3nc4ccccc4n3)CC2)c1`, the inhibition in test [1] is 20.7%; in test [2], -9.63%; in test [3] (filed as antagonist), 44.7%; in test [5], -8.07%.

`Fc1cccc(N2CCN(CCCCn3cnc4ccccc43)CC2)c1`: the inhibition in test [1] (filed as antagonist) is 80.1%; in test [2], 21.3%; in test [3] it was 1.87%; in test [5], -3.72%.

Turning to `Fc1ccc2c(C3CCN(CCCCn4cnc5ccccc54)CC3)noc2c1`, the inhibition in test [1] (filed as antagonist) is 100%; in test [2] (filed as antagonist), 100%; in test [3] (filed as antagonist) it was 96%; in test [5] (filed as antagonist), 80.7%; in test [6], -3.85%; in test [4] (filed as antagonist), 81.9%.

For the compound `c1ccc2c(c1)nnn2OCCCN1CCN(c2nsc3ccccc23)CC1`, the inhibition in test [1] (filed as antagonist) was 93.7%; in test [2] (filed as antagonist), 82.3%; in test [3] (filed as antagonist), 100%; in test [5] (filed as antagonist) it was 44.2%; in test [4] (filed as antagonist) it was 81.3%.

On to `c1ccc2c(c1)nnn2CCCCN1CCN(c2noc3ccccc23)CC1`, for which the inhibition in test [1] (filed as antagonist) worked out at 100%; in test [2] (filed as antagonist) it was 99.2%; in test [3] (filed as antagonist) it was 88.8%; in test [5] (filed as antagonist), 85.9%; in test [4], 38.3%.

On to `c1ccc2c(c1)ncn2CCCN1CCN(c2nsc3ccccc23)CC1`, for which the inhibition in test [1] (filed as antagonist) is 98%; in test [2] (filed as antagonist), 74.9%; in test [3] (filed as antagonist), 94%; in test [5], 24.6%; in test [6], -1.8%; in test [4] (filed as antagonist), 68.8%.

As to `Cc1nc2ccccc2n1CCCCN1CCN(c2cccc(C(F)(F)F)c2)CC1`, the inhibition is 98.9% in test [1] (filed as antagonist), 79.8% in test [2] (filed as antagonist), -5.62% in test [3] and 6.89% in test [5].

As to `Clc1cccc(N2CCN(CCCCn3cnc4ccccc43)CC2)c1`, the inhibition in test [1] (filed as antagonist) was 98.5%; in test [2] (filed as antagonist) it was 71.6%; in test [3] (filed as antagonist), 67.2%; in test [5], 15.4%; in test [4], -1.87%.

Consider `Fc1ccc2c(C3CCN(CCCCn4nnc5ccccc54)CC3)noc2c1`, for which the inhibition came to 101% in test [1] (filed as antagonist); 100% in test [2] (filed as antagonist); 98.2% in test [3] (filed as antagonist); 93.8% in test [5] (filed as antagonist); 39.9% in test [6]; 89.5% in test [4] (filed as antagonist).

For `FC(F)(F)c1cccc(N2CCN(CCCCCn3nnc4ccccc43)CC2)c1`, the inhibition in test [1] (filed as antagonist) stood at 75.3%; in test [2], 13%; in test [3] (filed as antagonist), 71.4%; in test [4], 7.37%.

For `FC(F)(F)c1cccc(N2CCN(CCCCn3nnc4ccccc43)CC2)c1`, the inhibition in test [1] (filed as antagonist) is 72.5%; in test [2] it was 38%; in test [3] (filed as antagonist), 63.4%; in test [5], -5.08%; in test [4], 0%.

Turning to `FC(F)(F)c1cccc(N2CCN(CCCCCCn3nc4ccccc4n3)CC2)c1`, the results for the inhibition in test [1], in test [2] and in test [3] were 30.3%, 7.06% and 9.94%, respectively.

Take `COc1cccc(N2CCN(CCCCn3cnc4ccccc43)CC2)c1`: the inhibition in test [1] (filed as antagonist) was 95.6%; in test [2] (filed as antagonist), 55%; in test [3], 13.1%; in test [5], -1.06%.

Consider `Fc1ccc2c(C3CCN(CCCn4nc5ccccc5n4)CC3)noc2c1`, for which the inhibition in test [1] (filed as antagonist) turned out to be 99%; in test [2] (filed as antagonist) it was 83.2%; in test [3] (filed as antagonist) it was 98.3%; in test [5], 28.9%; in test [6] (filed as antagonist), 79.7%; in test [4] (filed as antagonist) it was 98.7%.

With `Fc1ccc2c(N3CCN(CCCn4cnc5ccccc54)CC3)noc2c1`, the inhibition came out at 100% in test [1] (filed as antagonist); 98.4% in test [2] (filed as antagonist); 98% in test [3] (filed as antagonist); 52.8% in test [5] (filed as antagonist); 24.9% in test [6]; 87.3% in test [4] (filed as antagonist).

For `COc1ccccc1N1CCN(CCCCn2cnc3ccccc32)CC1`, the inhibition is 86.9% in test [1] (filed as antagonist); 22.8% in test [2]; 68.7% in test [3] (filed as antagonist); -0.88% in test [5]; -4.99% in test [4].

Take `Clc1cccc(N2CCN(CCCCn3cnc4ccccc43)CC2)c1Cl`: the inhibition is 78% in test [1] (filed as antagonist); 27% in test [2]; 55% in test [3] (filed as antagonist); 11.7% in test [5]; -5.13% in test [4].

As for `Fc1ccc2c(N3CCN(CCCn4nc5ccccc5n4)CC3)noc2c1`, the inhibition in test [1] (filed as antagonist) is 99.1%; in test [2] (filed as antagonist), 65.1%; in test [3] (filed as antagonist), 99.1%; in test [5], 29.5%; in test [6], 5.91%; in test [4] (filed as antagonist), 79.1%.

For `c1ccc2nn(CCCCN3CCN(c4nsc5ccccc45)CC3)nc2c1`, the inhibition in test [1] (filed as antagonist) was 100%; in test [2] (filed as antagonist), 96.2%; in test [3] (filed as antagonist), 101%; in test [5] (filed as antagonist), 68.8%; in test [6] it was -9.49%; in test [4] (filed as antagonist), 78.3%.

On to `c1ccc(N2CCN(CCCCn3nnc4ccccc43)CC2)cc1`, for which the inhibition is 79.6% in test [1] (filed as antagonist), 35% in test [2], 39.2% in test [3] and -9.51% in test [5].

With `FC(F)(F)c1cccc(N2CCN(CCCCCCn3nnc4ccccc43)CC2)c1`, the inhibition in test [1] (filed as antagonist) was 63.3%; in test [2], 4.15%; in test [3] (filed as antagonist), 53.5%; in test [6] it was -9.54%; in test [4], 11.3%.

With `Fc1cccc(N2CCN(CCCCn3nnc4ccccc43)CC2)c1`, the inhibition in test [1] (filed as antagonist) is 91%; in test [2] (filed as antagonist), 46.6%; in test [3] (filed as antagonist) it was 54%; in test [5], -7.76%; in test [4] it was -2.88%.

Consider `COc1ccccc1N1CCN(CCCOc2cccc(C)c2C)CC1`, for which the inhibition turned out to be 40.1% in test [1] (filed as antagonist), 7.19% in test [2] and 37.7% in test [3].

For `FC(F)(F)c1cccc(N2CCN(CCCCCn3nc4ccccc4n3)CC2)c1`, the inhibition in test [1] (filed as antagonist) turned out to be 44.8%; in test [2], 14.8%; in test [3], 14%; in test [5], 8.76%.

On to `Fc1ccc2c(N3CCN(CCCn4nnc5ccccc54)CC3)noc2c1`, for which the inhibition in test [1] (filed as antagonist) is 95.3%; in test [2] (filed as antagonist), 86.2%; in test [3] (filed as antagonist), 95.8%; in test [5] (filed as antagonist), 46%; in test [4] (filed as antagonist) it was 80.9%.

In the case of `Fc1ccc2c(N3CCN(CCCCn4nnc5ccccc54)CC3)noc2c1`, the inhibition was determined as 96.9% in test [1] (filed as antagonist); 95% in test [2] (filed as antagonist); 95.4% in test [3] (filed as antagonist); 98.6% in test [5] (filed as antagonist); 71.5% in test [4] (filed as antagonist).

For `Fc1ccc2ncn(CCCCN3CCN(c4cccc(C(F)(F)F)c4)CC3)c2c1`, the inhibition in test [1] (filed as antagonist) is 79.7%; in test [2], 34.7%; in test [3], 26.1%; in test [5], -7.67%.

`c1ccc2nn(CCCCN3CCN(c4noc5ccccc45)CC3)nc2c1`: the inhibition is 99% in test [1] (filed as antagonist); 94% in test [2] (filed as antagonist); 84.9% in test [3] (filed as antagonist); 69.5% in test [5] (filed as antagonist); 5.31% in test [4].

As to `FC(F)(F)c1cccc(N2CCN(CCCCn3nc4ccccc4n3)CC2)c1`, the inhibition in test [1] (filed as antagonist) is 53%; in test [2], -1.54%; in test [3], 38.1%; in test [5], -7.22%.

For `FC(F)(F)c1cccc(N2CCN(CCn3nnc4ccccc43)CC2)c1`, the inhibition in test [1] stood at 3.42%; in test [3] it was 18.9%.

As to `COc1cccc(OC)c1OCCNCC1COc2ccccc2O1` (centres undefined), the inhibition in test [1] (filed as antagonist) is 102%; in test [2] (filed as antagonist), 87%; in test [5] (filed as antagonist) it was 46.3%.

Regarding `Clc1cccc(N2CCN(CCCCn3nnc4ccccc43)CC2)c1`, the inhibition in test [1] (filed as antagonist) was found to be 97.4%; in test [2] (filed as antagonist) it was 74.2%; in test [3] (filed as antagonist) it was 77.6%; in test [5], 5.9%; in test [4], 17.2%.

Regarding `FC(F)(F)c1cccc(N2CCN(CCCCn3cnc4ccccc43)CC2)c1`, the inhibition in test [1] (filed as antagonist) is 89.3%; in test [2], 36.4%; in test [3], 37.7%; in test [5], -1.42%.

Turning to `O=C(c1ccc(F)cc1)C1CCN(CCn2c(=O)[nH]c3ccccc3c2=O)CC1`, the inhibition stood at 41.2% in test [6] (filed as antagonist) and 89.6% in test [4] (filed as antagonist).
